Test results reported in patent publication US20080269238A1, “Thiazolopyrimidine Derivative” (TAKEDA PHARMACEUTICAL COMPANY LIMITED, priority 2004, published 2008).

molecular target: T1, HER2 kinase (intracellular domain of HER2) (Homo sapiens, UniProt P04626); assay: Measurement of inhibition activity of HER2 kinase; type: biochemical; settings: test compound 1.0 μM, poly-Glu:Tyr(4:1) substrate, [γ-32P]ATP, 25° C. 10 minutes, read-out: Inhibition rate (%) in 1.0 μM
T1 construct: FLAG (N); made in house; host or cells: SF-21 insect cells infected with recombinant baculovirus BAC-HER2
T1 sequence (P04626 676-1255 limits assumed): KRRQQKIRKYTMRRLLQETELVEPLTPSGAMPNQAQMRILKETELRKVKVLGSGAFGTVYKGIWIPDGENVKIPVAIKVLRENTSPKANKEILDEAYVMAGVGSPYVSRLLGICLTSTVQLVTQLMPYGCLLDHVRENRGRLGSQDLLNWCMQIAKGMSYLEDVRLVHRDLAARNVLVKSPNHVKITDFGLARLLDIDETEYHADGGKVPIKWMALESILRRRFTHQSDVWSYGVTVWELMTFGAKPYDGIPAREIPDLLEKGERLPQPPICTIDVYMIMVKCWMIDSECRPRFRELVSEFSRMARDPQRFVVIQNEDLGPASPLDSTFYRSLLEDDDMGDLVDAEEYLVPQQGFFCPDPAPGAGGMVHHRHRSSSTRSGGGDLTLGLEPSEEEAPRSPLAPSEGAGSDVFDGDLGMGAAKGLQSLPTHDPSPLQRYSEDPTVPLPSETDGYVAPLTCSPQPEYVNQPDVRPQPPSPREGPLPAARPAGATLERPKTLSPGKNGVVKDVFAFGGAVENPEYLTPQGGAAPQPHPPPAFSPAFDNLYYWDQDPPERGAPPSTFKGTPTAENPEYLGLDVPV
Procedure: Cloning of Human HER2 Gene was performed with RT-PCR templating total RNA prepared from MCF 7 cell. To attach Flag tag in N-terminal of HER2, a primer used in RT-PCR was manufactured by adding flag peptide coding sequence and restricted enzyme recognition sequence to the base sequence (2176-3918 in Genbank Accession M11730) which codes a part of intracellular domain of the protein using an information of base sequence of HER2 Gene (Genbank Accession M11730). Base sequence of the primer was shown as below.
(§1) RT reaction was performed using a SuperScript First-Strand Synthesis system for RT-PCR (Invitrogen), and PCR reaction was performed using a KOD-plus kit (TOYOBO). The obtained PCR product was subjected to electrophoresis on agarose gel (1%), and digested with Sal I and Sph I after collecting a DNA fragment amplified by PCR from the gel. The DNA treated with restricted enzymes was subjected to electrophoresis on agarose gel (1%), the obtained DNA fragment was collected, and ligated to a plasmid pFASTBAC1 (Invitrogen) digested with restricted enzymes Sal I and Sph I, resulting that expression plasmid pFB-HER2 was manufactured. Base sequence of inserted fragment was confirmed. As a result, the base sequence of inserted fragment was corresponded with base sequence of the intracellular domain of the HER2 (pp. 2176-3918 in Genbank Accession M11730). Further, a recombinant baculovirus BAC-HER2 was prepared using BAC-TO-BAC Baculovirus Expression System (Invitrogen).
A SF-21 cell was plated with 1×10^6 cells/ml in a Sf-900II SFM medium (Invitrogen) containing 10% of fetal bovine serum (Trace), 50 mg/L of Gentamicin (Invitrogen) and 0.1% of Pluronic F-68 (Invitrogen), and cultured with shaking at 27° C. at 100 rpm using a 2 L meyer. After culturing for 24 hours, 13.4 ml of a recombinant baculovirus BAC-HER2 was added thereto, and further cultured for 3 days. The cultured solution was centrifuged at 2,000 rpm for 5 minutes, and a virus-infected cell was obtained. The cell was washed with phosphate buffered saline (Invitrogen), centrifuged under the same condition, and preserved at −80° C. The freezing preserved cell was melted on ice, suspended with 30 ml of a buffer A (50 mM of tris-buffer containing 20% of glycerol and 0.15M of NaCl (pH 7.4)) to which was added Complete Protease Inhibitor (Behringer), and crushed at 20,000 rpm for 30 seconds three times using Polytron homogenizer (Kinematica). The crushed solution was clarified by centrifugation at 40,000 rpm for 30 minutes, and filtered using a 45 μm filter. The filtrate was passed through a column filled with Anti-FLAG M2 Affinity Gel (Sigma Corp.) in a flow rate of about 0.5 mL/min. The column was washed with a buffer A, and eluted with a buffer A containing 100 μg/mL of FLAG peptide. The eluted solution was concentrated by Vivaspin 20 of MWCO (molecular weight of cut-off) 30K (Vivascience). This concentrated solution was gel-filtrated and purified by a Hi Load Superdex 200 pg 16/60 (Amersham Biosciences) equilibrated with the buffer A. The fraction containing the intracellular domain of HER2 was collected, and glycerol was added thereto to be a 50% of terminal concentration, and then freezing preserved at −80° C.
The test compound dissolved in dimethylsulfoxide (DMSO) was diluted with buffer for measuring the kinase reaction (50 mM of Tris-HCl (pH 7.5), 5 mM of MgCl2, 5 mM MnCl2, 2 mM of dithiothreitol, 0.01% of Tween-20). […]

Structure (SMILES)	inhibition at 1 µM [%]
OCCNCc1ccc(-c2nc3c(Nc4ccc(OCc5cccc(F)c5)c(Cl)c4)ncnc3s2)cc1 [Example 26, 2-({4-[7-({3-chloro-4-[(3-fluorobenzyl)oxy]phenyl}amino)[1,3]thiazolo[5,4-d]pyrimidin-2-yl]benzyl}amino)ethanol]	92
COCCNCc1ccc(-c2nc3c(Nc4ccc(F)c(Cl)c4)ncnc3s2)cc1 [Example 39, N-(3-chloro-4-fluorophenyl)-2-(4-{[(2-methoxyethyl)amino]methyl}phenyl) [1,3]thiazolo[5,4-d]pyrimidin-7-amine]	96
COCCNCCc1ccc(-c2nc3c(Nc4ccc(Oc5ccc(C)nc5)c(C)c4)ncnc3s2)cc1 [Example 41, 2-(4-{2-[(2-methoxyethyl)amino]ethyl}phenyl)-N-{3-methyl-4-[(6-methylpyridin-3-yl)oxy]phenyl}[1,3]thiazolo[5,4-d]pyrimidin-7-amine]	89
OCCNCc1ccc(-c2nc3c(Nc4ccc(Oc5cccc(C(F)(F)F)c5)c(Cl)c4)ncnc3s2)cc1 [Example 58, 2-({4-[7-({3-chloro-4-[3-(trifluoromethyl)phenoxy]phenyl}amino)[1,3]thiazolo[5,4-d]pyrimidin-2-yl]benzyl}amino)ethanol]	90
O=C(CO)NCc1ccc(-c2nc3c(Nc4ccc(OCc5ccsc5)c(Cl)c4)ncnc3s2)cc1 [Example 80, N-[4-(7-{[3-chloro-4-(3-thienylmethoxy)phenyl]amino}[1,3]thiazolo[5,-d]pyrimidin-2-yl)benzyl]-2-hydroxyacetamide]	87

molecular target: T2, EGF receptor kinase (intracellular domain of EGF receptor) (Homo sapiens, UniProt P00533); assay: Measurement of inhibition activity of EGF receptor kinase; type: biochemical; settings: EGFR kinase; test compound 1.0 μM; biotinyl-poly-Glu:Tyr (4:1), α-screen assay, 25° C. 10 minutes; read-out: Inhibition rate (%) in 1.0 μM
T2 construct: FLAG (N); made in house; host or cells: SF-21 insect cells infected with recombinant baculovirus BAC-EGFR
T2 sequence (P00533 669-1210 limits assumed): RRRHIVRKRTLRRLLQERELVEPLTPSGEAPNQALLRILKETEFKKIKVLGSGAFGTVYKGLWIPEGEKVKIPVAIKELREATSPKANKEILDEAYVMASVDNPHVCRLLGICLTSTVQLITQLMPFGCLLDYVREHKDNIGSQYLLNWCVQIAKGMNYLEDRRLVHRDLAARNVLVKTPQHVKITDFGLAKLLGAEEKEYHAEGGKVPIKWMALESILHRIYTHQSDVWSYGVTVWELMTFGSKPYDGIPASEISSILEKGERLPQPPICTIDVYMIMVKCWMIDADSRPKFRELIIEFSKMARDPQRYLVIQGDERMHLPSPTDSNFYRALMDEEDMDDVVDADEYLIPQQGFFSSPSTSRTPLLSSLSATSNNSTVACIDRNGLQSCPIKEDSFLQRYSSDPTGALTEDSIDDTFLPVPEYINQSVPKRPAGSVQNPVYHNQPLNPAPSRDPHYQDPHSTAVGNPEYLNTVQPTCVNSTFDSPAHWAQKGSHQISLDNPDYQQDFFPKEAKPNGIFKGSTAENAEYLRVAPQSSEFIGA
Procedure: Cloning of Human EGF Receptor Gene was performed with RT-PCR templating total RNA prepared from A431 cell. To attach Flag tag in N-terminal of EGF, a primer used in RT-PCR was manufactured by adding flag peptide coding sequence and restricted enzyme recognition sequence to the base sequence (2182-3810 in Genbank Accession XM—167493) which codes a part of intracellular domain of the protein using an information of base sequence of EGF receptor Gene (Genbank Accession XM—167493). The Base sequence of the primer was shown as below.
as §1, with “and” for “resulting that”, “EGFR” for “the HER2”, “2182-3810” for “2176-3918”, “XM—167493).” for “M11730).”, “BAC-EGFR” for “BAC-HER2”
A SF-21 cell was plated with 1×10^6 cells/ml in a Sf-900II SFM medium (Invitrogen) containing 10% of a fetal bovine serum (Trace), 50 mg/L of Gentamicin (Invitrogen) and 0.1% of Pluronic F-68 (Invitrogen), and cultured with shaking at 27° C. at 100 rpm using a 2 L meyer. After culturing for 24 hours, 13.4 mL of a recombinant baculovirus EGFR was added thereto, and further cultured for 3 days. The cultured solution was centrifuged in 2,000 rpm for 5 minutes, and a virus-infected cell was obtained. The cell was washed with phosphate buffered saline (Invitrogen), centrifuged under the same condition, and then preserved at −80° C. The freezing preserved cell was melted on ice, suspended with 30 mL of a buffer A (50 mM of tris-buffer containing 20% of glycerol and 0.15M of NaCl (pH 7.4)) to which was added Complete Protease Inhibitor (Behringer), and crushed at 20,000 rpm for 30 seconds three times using Polytron homogenizer (Kinematica). The crushed solution was clarified by centrifugation at 40,000 rpm for 30 minutes, and filtered using a 45 μm filter. The filtrate was passed through a column which is filled with Anti-FLAG M2 Affinity Gel (Sigma Corp.) in a flow rate of about 0.5 mL/min. The column was washed with a buffer A, and eluted with a buffer containing 100 μg/ml of FLAG peptide. […]

Structure (SMILES)	inhibition at 1 µM [%]
COCCNC(=O)c1nc2c(Nc3ccc(OCc4cccc(F)c4)c(Cl)c3)ncnc2s1 [Example 20, 7-({3-chloro-4-[(3-fluorobenzyl)oxy]phenyl}amino)-N-(2-methoxyethyl) [1,3]thiazolo[5,4-d]pyrimidine-2-carboxamide]	91
CS(=O)(=O)CCNCCNC(=O)c1nc2c(Nc3ccc(OCc4cccc(F)c4)c(Cl)c3)ncnc2s1 [Example 25, 7-({3-chloro-4-[(3-fluorobenzyl)oxy]phenyl}amino)-N-(2-{[2-(methylsulfonyl)ethyl]amino}ethyl)[1,3]thiazolo[5,4-d]pyrimidine-2-carboxamide]	88
CC(=O)NCCCCCc1nc2c(Nc3ccc(OCc4cccc(F)c4)c(Cl)c3)ncnc2s1 [Example 46, N-{5-[7-({3-chloro-4-[(3-fluorobenzyl)oxy]phenyl}amino) [1,3]thiazolo[5,4-d]pyrimidin-2-yl]pentyl}acetamide]	81
Fc1cccc(COc2ccc(Nc3ncnc4sc(C5CC5)nc34)cc2Cl)c1 [Example 52, N-{3-chloro-4-[(3-fluorobenzyl)oxy]phenyl}-2-cyclopropyl[1,3]thiazolo[5,4-d]pyrimidin-7-amine]	81
